Patent publication US6586000B2, “Hydroxide-releasing agents as skin permeation enhancers” (Dermatrends, Inc., priority 1999, dated 2003)

Assay: In vitro permeation of oxytocin solution through NaOH-pretreated skin, Franz-type diffusion cells
Format: in vitro ADME, human
Procedure: (§1) The volume of receiver solution was 8 ml. […] Eighteen diffusion cells were used in this study. A 2% NaOH aqueous solution (50 μl) was introduced to the donor chambers of nine cells (cells #1 to 9) and a 4% NaOH aqueous solution (50 μl) was introduced to the donor chambers of the other nine cells (cells #10 to 18). Once the NaOH solution is applied, the donor chamber was covered with parafilm.
After 5 hours, the NaOH solution was washed away from the skin for 3 cells (cells #1 to 3) that were treated with 2% NaOH solution and 3 cells (cells #10 to 12) that were treated with 4% NaOH solution. […] After 24 hours, the NaOH solution was washed away from the skin for 3 cells (cells #7 to 9) that were treated with 2% NaOH solution and 3 cells (cells #16 to 18) that were treated with 4% NaOH solution. To wash away the NaOH solution, the receiving fluid was removed and replaced with fresh DI water. This was done twice. DI water was added to the donor chamber to dilute the NaOH solution and then the donor solution was removed. This was repeated several times.
After the NaOH solution was washed away from the skin, the solution in the donor chamber was completely removed and replaced by 50 μl of an oxytocin solution. Once the oxytocin solution is applied, the donor chamber was covered with parafilm.
The cells were filled with DI water as a receiver solution. The DI water had been degased to remove air bubbles. […] The samples taken were analyzed by HPLC for the concentration of oxytocin in the receiver solution. The cumulative amount of oxytocin across human cadaver skin was calculated using the measured oxytocin concentrations in the receiver solutions for each time point, which were listed in Table 46.
as §1, with “0.25%” for “2%”, “A 1.0%” for “a 4%”
After 5 hours, the NaOH solution was washed away from the skin for 3 cells (cells #1 to 3) that were treated with […] and 3 cells (cells #10 to 12) that were treated with 1.0% NaOH solution. After 11 hours, the NaOH solution was washed away from the skin for 3 cells (cells #4 to 6) that were treated with 0.25% NaOH solution and 3 cells (cells #13 to 15) that were treated with 1.0% NaOH solution. After 24 hours, the NaOH solution was washed away from the skin for 3 cells (cells #7 to 9) that were treated with 0.25% NaOH solution and 3 cells (cells #16 to 18) that were treated with 1.0% NaOH solution. To wash away the NaOH solution, the receiving fluid was removed and replaced with fresh DI water. This was done twice. DI water was added to the donor chamber to dilute the NaOH solution and then the donor solution was removed. This was repeated several times until the pH of donor solution was less than 8.
The cells were filled with DI water as a receiver solution. The DI water has been degased to remove air bubbles. […] The cumulative amount of oxytocin across human cadaver skin was calculated using the measured oxytocin concentrations in the receiver solutions for each time point, which were listed in Table 48.

CC[C@H](C)[C@@H]1NC(=O)[C@H](Cc2ccc(O)cc2)NC(=O)[C@@H](N)CSSC[C@@H](C(=O)N2CCC[C@H]2C(=O)N[C@@H](CC(C)C)C(=O)NCC(N)=O)NC(=O)[C@H](CC(N)=O)NC(=O)[C@H](CCC(N)=O)NC1=O [Oxytocin, oxytocin]
Cumulative Amount of Oxytocin Permeated Across Human Cadaver Skin (skin pretreated by 1.0% NaOH for 5 hr, 4.25 hours): 0.45 μg/cm^2
Cumulative Amount of Oxytocin Permeated Across Human Cadaver Skin (skin pretreated by 1.0% NaOH for 5 hr, 24 hours): 0.97 μg/cm^2
Cumulative Amount of Oxytocin Permeated Across Human Cadaver Skin (skin pretreated by 1.0% NaOH for 5 hr, […]): 0.97 μg/cm^2
Cumulative Amount of Oxytocin Permeated Across Human Cadaver Skin (skin pretreated by 1.0% NaOH for 11 hr, 4.25 hours): 53.42 μg/cm^2
Cumulative Amount of Oxytocin Permeated Across Human Cadaver Skin (skin pretreated by 1.0% NaOH for 11 hr, 24 hours): 75.36 μg/cm^2
Cumulative Amount of Oxytocin Permeated Across Human Cadaver Skin (skin pretreated by 1.0% NaOH for 11 hr, […]): 67.97 μg/cm^2
Cumulative Amount of Oxytocin Permeated Across Human Cadaver Skin (skin pretreated by 1.0% NaOH for 24 hr, 4.25 hours): 13.23 μg/cm^2
Cumulative Amount of Oxytocin Permeated Across Human Cadaver Skin (skin pretreated by 1.0% NaOH for 24 hr, 24 hours): 30.97 μg/cm^2
Cumulative Amount of Oxytocin Permeated Across Human Cadaver Skin (skin pretreated by 1.0% NaOH for 24 hr, […]): 21.06 μg/cm^2
Cumulative Amount of Oxytocin Permeated Across Human Cadaver Skin (skin pretreated by 4% NaOH for 5 hr, 5 hours): 118.95 μg/cm^2
Cumulative Amount of Oxytocin Permeated Across Human Cadaver Skin (skin pretreated by 4% NaOH for 5 hr, 15 hours): 200.66 μg/cm^2
Cumulative Amount of Oxytocin Permeated Across Human Cadaver Skin (skin pretreated by 4% NaOH for 5 hr, 24 hours): 225.52 μg/cm^2
Cumulative Amount of Oxytocin Permeated Across Human Cadaver Skin (skin pretreated by 4% NaOH for 15 hr, 5 hours): 202.28 μg/cm^2
Cumulative Amount of Oxytocin Permeated Across Human Cadaver Skin (skin pretreated by 4% NaOH for 15 hr, 15 hours): 222.45 μg/cm^2
Cumulative Amount of Oxytocin Permeated Across Human Cadaver Skin (skin pretreated by 4% NaOH for 15 hr, 24 hours): 231.58 μg/cm^2
Cumulative Amount of Oxytocin Permeated Across Human Cadaver Skin (skin pretreated by 4% NaOH for 24 hr, 5 hours): 193.82 μg/cm^2
Cumulative Amount of Oxytocin Permeated Across Human Cadaver Skin (skin pretreated by 4% NaOH for 24 hr, 15 hours): 232.72 μg/cm^2
Cumulative Amount of Oxytocin Permeated Across Human Cadaver Skin (skin pretreated by 4% NaOH for 24 hr, 24 hours): 236.80 μg/cm^2
